For data set [1], the system named is NCI-H1299. As to the kind of experiment: Cytotoxicity against human H1299 cells overexpressing alphavbeta3 integrin at up to 50 uM after 24 hrs by XTT assay. In kind it is functional, cell-based. In general terms: Tetrazolium dyes change colour on reduction, which living cells bring about.
Data set [2] in a line: Chemical stability of the compound at pH 7.4 assessed as half life by LC-MS analysis. In kind it is physicochemical. Conditions: buffer.
Data set [3] relates to B16-F10. The experiment in a line: Cytotoxicity against mouse B16F10 cells overexpressing alphavbeta3 integrin up to 50 uM after 24 hrs by XTT assay. In kind it is functional, cell-based.
The nature of data set [4]: Chemical stability of the compound at pH 5.2 assessed as half life by LC-MS analysis. In kind it is physicochemical. Conditions: buffer.
Data set [5] has as its system HEK293. The experiment in a line: Cytotoxicity against HEK293 […] cells non-expressing alphavbeta3 integrin up to 50 uM after 24 hrs by XTT assay. Conditions: human, hek293, 24 h. In kind it is cell-based.
Data set [6] can be described thus: Half life in mouse liver homogenates by LC-MS analysis. Conditions: liver homogenate. In kind it is ADME, tissue-based.
Data set [7] concerns NCI-H1299. The experiment in a line: Cytotoxicity against human H1299 cells overexpressing alphavbeta3 integrin at >50 uM after 24 hrs by XTT assay. In kind it is functional, cell-based.
Data set [8] has as its system B16-F10. As to the kind of experiment: Cytotoxicity against mouse B16F10 cells overexpressing alphavbeta3 integrin at 50 to 100 uM after 24 hrs by XTT assay. In kind it is functional, cell-based.
Data set [9] concerns Liver. The experiment in a line: Drug metabolism in mouse liver homogenates assessed as time duration for drug release at 37 degC by LC-MS analysis. In kind it is ADME, tissue-based. Conditions: tissue homogenate.
The test system of data set [10] is Liver. As to the kind of experiment: Drug metabolism in mouse liver homogenates assessed as half life for drug release at 37 degC by LC-MS analysis. In kind it is ADME, tissue-based. To be noted: tissue homogenate.
The test system of data set [11] is HEK293. The experiment in a line: Cytotoxicity against HEK293 […] cells non-expressing alphavbeta3 integrin after 24 hrs by XTT assay. Conditions: human, hek293, 24 h. In kind it is cell-based.

By half-life is commonly meant the time in which the quantity being followed falls by half.

The source made the active and inactive calls. The rule behind the calls is not given here. Bounds are passed on as bounds.

With `CC[C@@]1(O)C(=O)OCc2c1cc1n(c2=O)Cc2cc3ccccc3nc2-1` [CAMPTOTHECIN], the result in the data set on NCI-H1299 [1] and with B16-F10 [3] was Active. Moreover, the half-life in data set [2] is less than 96 h; in data set [4], less than 96 h; in [6], 1.75 h. The Activity entry in the data set with HEK293 [5] is reported as “Toxic”.
Consider `O=C(O)CCCc1ccc(N(CCCl)CCCl)cc1` [CHLORAMBUCIL], for which the half-life in data set [2] is 3.33 h; in data set [4], 3.33 h; in data set [6], 1 h.
For the molecule `N=C(N)NCCC[C@@H]1NC(=O)[C@H](CCCCNC(=O)CCCc2ccc(N(CCCl)CCCl)cc2)NC(=O)[C@@H](Cc2ccccc2)NC(=O)[C@H](CC(=O)O)NC(=O)CNC1=O`, the half-life in [2] and in [4] was less than 12 h in each case. For the same molecule, the outcome in the data set on NCI-H1299 [7] and in the data set on B16-F10 [8] was Active. For the same molecule, the Drug metabolism result in the data set with Liver [9] was “metabolite_notdetected”.
In the case of `CC[C@@]1(OC(=O)NCCCC[C@@H]2NC(=O)[C@@H](Cc3ccccc3)NC(=O)[C@H](CC(=O)O)NC(=O)CNC(=O)[C@H](CCCNC(=N)N)NC2=O)C(=O)OCc2c1cc1n(c2=O)Cc2cc3ccccc3nc2-1`, the half-life in data set [2] and in data set [4] was more than 96 h throughout. The t1/2 with Liver [10] was 5 min. Also, the Time in the data set on Liver [9] amounted to 10 min.
As to `N=C(N)NCCC[C@@H]1NC(=O)[C@H](COC(=O)CCCc2ccc(N(CCCl)CCCl)cc2)NC(=O)[C@@H](Cc2ccccc2)NC(=O)[C@H](CC(=O)O)NC(=O)CNC1=O`, the half-life in data set [2] and in [4] was less than 12 h each time. Besides, the result with NCI-H1299 [7] and with B16-F10 [8] was Active. The t1/2 with Liver [10] came out at 5 min. Further, in the data set on HEK293 [11], the Activity entry is on record as “Toxic”. Also, the Time in the data set on Liver [9] is given as 45 min.

Values taken from ChEMBL document CHEMBL3751706, “Synthesis, biological studies and molecular dynamics of new anticancer RGD-based peptide conjugates for targeted drug delivery” (Bioorg Med Chem, 2016).
